Where no end group is shown, it is not given here.
Legend:
[1] = test system: mice with ABPA (allergy to Aspergillus fumigatus); experiment: Allergic Bronchopulmonary Aspergillosis (ABPA) allergy model in mice; type: in vivo
Protocol: (§1) Evaluation of the efficacy of thymosin alpha 1 in two experimental models of allergy. A model consists of inducing an allergic state by administering chicken ovalbumin (OVA) in allergising conditions. The other consists of inducing the allergy from environmental allergens, and namely the spores of the fungus Aspergillus fumigatus.
The induction of the allergic pathology due to Aspergillus (called ABPA, Allergic Bronchopulmonary Aspergillosis) and to OVA was carried out as described in table 1 (Montagnoli C, Fallarino F, Gaziano R, Bozza S, Bellocchio S, Zelante T, Kurup W P, Pitzurra L, Puccetti P, Romani L. Immunity and tolerance to Aspergillus involve functionally distinct regulatory T cells and tryptophan catabolism. J. Immunol. 2006, 176:1712-1723). The mice received an intraperitoneal (i.p.) and subcutaneous (s.c.) injection of 5 μg of A. fumigatus culture filter (CCFA) dissolved in an incomplete Freund adjuvant (Sigma) followed by two consecutive intranasal injections (one week apart) of 20 μg CCFA. One week after the last intranasal contact, the mice received 10^7 Aspergillus conidia intratracheally (i.t.) […]. The mice received 10 μg of OVA via i.p./s.c. on day 0, followed by two consecutive intranasal injections (one week apart) of 10 μg of OVA (chicken OVA grade VI; Sigma-Aldrich) together with 1 mg of Al(OH)3 (Alum Inject; Pierce, Rockford, Ill.) as adjuvant dissolved in a sterile saline solution. The mice were analysed for inflammation and allergy parameters a week later. For the histological analysis, sections (from 3 to 4 μm) of tissues immersed in paraffin were coloured with periodical Schiff acid (PAS) to evaluate the general morphology. The lung sections coloured with PAS were examined at 50, 200 and 400 enlargements to assess the “Globet” type cells typical of the allergy.
The differential total and total lung cell counts were carried out by colouring the lung of allergic mice with May-Grünwald reagents (Giemsa Sigma) before the analysis.
(§2) The collagen levels in the lungs were determined as described (Montagnoli C, Fallarino F, Gaziano R, Bozza S, Bellocchio S, Zelante T, Kurup WP, Pitzurra L, Puccetti P, Romani L. Immunity and tolerance to Aspergillus involve functionally distinct regulatory T cells and tryptophan catabolism. J. Immunol. 2006, 176:1712-1723). The concentrations of hydroxyproline were calculated by means of a standard hydroxyproline curve (zero to 100 μg/ml).
IgE determination in the serum. Total IgE in the serum samples was determined by enzyme-linked immunosorbent assay (Montagnoli C, Fallarino F, Gaziano R, Bozza S, Bellocchio S, Zelante T, Kurup WP, Ptzurra L, Puccetti P, Romani L. Immunity and tolerance to Aspergillus involve functionally distinct regulatory T cells and tryptophan catabolism. J. Immunol. 2006, 176:1712-1723 in the serum samples was measured by enzyme-linked immunosorbent assay).
Treatment with thymosin alpha 1. Tα1 (purchased from Sigma, St. Louis, Mo., USA; product no. T3410; molecular formula C129H215N33O55) and the scrambled peptide were supplied as sterile dried powders. The powders were reconstituted in sterile water (endotoxin levels were <0.03 pg/ml, by means of standard Limulus lysate assay). Tα1 was administered at a dosage of 50 and 200 microgrammes/kg i.p. according to the design reported in tables 1 and 2, both in the ABPA model and in the allergy from OVA. Mice controls received the scrambled peptide. In selected experiments, the mice were treated for comparison with a known agent that could improve the allergic symptomatology: oligodeoxynucleotide, containing non-methylated CpG (CpG) sequences.

[2] = test system: mice with allergy from OVA; experiment: Allergy from OVA (chicken ovalbumin) model in mice; type: in vivo; conditions: FIG. 1B
Protocol: as §1
The induction of the allergic pathology due to Aspergillus (called ABPA, Allergic Bronchopulmonary Aspergillosis) and to OVA was carried out as described in table 1 (Montagnoli C, Fallarino F, Gaziano R, Bozza S, Bellocchio S, Zelante T, Kurup W P, Pitzurra L, Puccetti P, Romani L. Immunity and tolerance to Aspergillus involve functionally distinct regulatory T cells and tryptophan catabolism. J. Immunol. 2006, 176:1712-1723). The mice received an intraperitoneal (i.p.) and subcutaneous (s.c.) injection of 5 μg of A. fumigatus culture filter (CCFA) dissolved in an incomplete Freund adjuvant (Sigma) followed by two consecutive intranasal injections (one week apart) of 20 μg CCFA. […] The mice were analysed for inflammation and allergy parameters a week later. […]
as §2
IgE determination in the serum. Total IgE in the serum samples was determined by enzyme-linked immunosorbent assay (Montagnoli C, Fallarino F, Gaziano R, Bozza S, Bellocchio S, Zelante T, Kurup WP, Ptzurra L, Puccetti P, Romani L. Immunity and tolerance to Aspergillus involve functionally distinct regulatory T cells and tryptophan catabolism. J. Immunol. 2006, 176:1712-1723 in the serum samples was measured by enzyme-linked immunosorbent assay). […]

[3] = FIG. 1A, Tα1 200 microgrammes i.p., both prophylaxis and therapy, vs control mice
[4] = Tα1 200 microgrammes i.p., both prophylaxis and therapy, vs control mice

What does the source list for “thymosin alpha 1 (Ac-SDAAVDTSSEITTKDLKEKKEVVEEAEN; ends and bridges not checked; UniProt P06454 2-29, looked up) [Tα1, thymic peptide found in nature; purchased from Sigma, product no; T3410]”?
IgE antibodies [1, 3]: drastic reduction; local production of hydroxyproline [1, 3]: drastic reduction; reduction in allergic inflammatory parameters (hydroxyproline, IgE) at lower dosages ([1]; FIG. 1A, lower dosages (50 microgrammes/kg i.p.)): not at lower dosages; efficacy in reducing the allergic inflammation parameters, Tα1 compared with CpG ([1]; FIG. 2, both in prophylaxis and therapy): comparable efficacy; recruitment of monocytes/macrophages (pulmonary) ([1]; FIG. 3): did not have any appreciable effects; recruitment of neutrophils (pulmonary) ([1]; FIG. 3): did not have any appreciable effects; recruitment of eosinophils (pulmonary) ([1]; FIG. 3, both in prophylaxis and in therapy): drastic reduction; hyperplasia of submucose glandular (Globet) cells in pulmonary sections ([1]; FIG. 4, histology (PAS)): decreased hyperplasia; inflammatory infiltrate in pulmonary sections ([1]; FIG. 4, histology (PAS), prophylactic treatment): considerably reduced; IgE antibodies [2, 4]: drastic reduction; local production of hydroxyproline [2, 4]: drastic reduction; reduction in allergic inflammatory parameters (hydroxyproline, IgE) at lower dosages ([2]; lower dosages (50 microgrammes/kg i.p.)): not at lower dosages

Reference: patent US20090270594A1, “USE OF THYMOSIN ALPHA 1 FOR THE PREPARATION OF A MEDICAMENT FOR THE PREVENTION AND TREATMENT OF ALLERGIES” (SIGMA-TAU INDUSTRIE FARMACEUTICHE, priority 2006, published 2009)
